Source: US6627630B1, “Condensed pyridazine derivatives, their production and use” (Takeda Chemical Industries, Ltd., priority 1998, dated 2003)

How the values were obtained:
[1] = system: histamine-induced skin reactions; assay: Effect on histamine-induced skin reactions in guinea pigs; type: in vivo, guinea pig; conditions: 1 hour before intradermal histamine
Experimental: Effect on Histamine-induced Skin Reactions in Guinea Pigs
(§1) Male Hartley guinea pigs weighing about 500 g were used. After the dorsal hair was shaved under ether anesthesia, 1 ml of a 2.5% pontamine sky blue solution was injected intravenously administered, and then 0.1 ml of histamine at 3 μg/ml was injected intradermally into 2 sites (left and right) in the back. Thirty minutes after the injection of histamine, animals were killed by bleeding and the skin was removed. Two perpendicular diameters (mm) of each blue spot on the inside of the skin were measured and multiplied; the mean for the two products was taken as the microvascular permeability index. Test compounds were suspended in a 5% gum arabic solution and orally administered in a volume of 0.2 ml/100 g body weight 1 hour before histamine administration. Animals in the control group received the same volume of a 5% gum arabic solution. The suppression rate of the sample for the title reaction was calculated using Equation 1.
Inhibition (%) of histamine-induced skin reactions=100×(1−vascular permeability index in the presence of drug/vascular permeability index in control group) Equation 1
as §1, with “bleeding and he skin was” for “bleeding and the skin was”, “measured and multiplied, the mean” for “measured and multiplied; the mean”

| melting point [°C] | Structure (SMILES) | further results |
| --- | --- | --- |
| 105 to 106 | CCOC(=O)C(C)(C)c1cn2nc(CCCCN3CCN(C(c4ccccc4)c4ccccc4)CC3)ccc2n1 [Example 94A, Ethyl 2-[6-[4-[4-(Diphenylmethyl)-1-piperazinyl]butyl]imidazo[1,2-b]pyridazin-2-yl]-2-methylpropionate] |  |
| 115 to 117 | O=C(O)C1(c2cn3nc(NCCCN4CCC(OC(c5ccccc5)c5ccccc5)CC4)ccc3n2)CC1 [Example 100A, 1-[6-[3-[4-(Diphenylmethoxy)piperidino]propylamino]imidazo[1,2-b]pyridazin-2-yl]cyclopropanecarboxylic Acid] |  |
| 195 to 205 | CC(C)(C(=O)O)c1cn2nc(CCCN3CCC(OC(c4ccccc4)c4ccccc4)CC3)ccc2n1 [Example 102A, 2-[6-[3-[4-(Diphenylmethoxy)piperidino]propyl]imidazo[1,2-b]pyridazin-2-yl]-2-methylpropionic Acid] |  |
| 101 to 103 | Cc1nc2ccc(NCCCN3CCC(OC(c4ccccc4)c4ccccc4)CC3)nn2c1C(=O)O [Example 107A, [6-[3-[4-(Diphenylmethoxy)piperidino]propylamino]-2-methylimidazo[1,2-b]pyridazin-3-yl]carboxylic Acid] |  |
| 115 to 117 | CCOC(=O)C(C)(C)c1cn2nc(NCCCN3CCC(NC(c4ccccc4)c4ccccc4)CC3)ccc2n1 [Example 108A, Ethyl 2-[6-[3-[4-(Diphenylmethylamino)piperidino]propylamino]imidazo[1,2-b]pyridazin-2-yl]-2-methylpropionate] |  |
| 83 to 86 | CCOC(=O)CCNC(=O)c1cn2nc(NCCCN3CCC(OC(c4ccccc4)c4ccccc4)CC3)ccc2n1 [Example 112A, N-[6-[3-[4-(Diphenylmethoxy)piperidino]propylamino]imidazo[1,2-b]pyridazine-2-carbonyl]-β-alanine Ethyl Ester] |  |
| 133 to 135 | CC(C)(C)OC(=O)c1nc2ccc(NCCCN3CCC(OC(c4ccccc4)c4ccccc4)CC3)nn2n1 [Example 116A, tert-Butyl[6-[3-[4-(Diphenylmethoxy)piperidino]propylamino][1,2,4]triazolo[1,5-b]pyridazin-2-yl]carboxylate] |  |
| 158 to 160 | CCOC(=O)CNC(=O)c1nc2ccc(NCCCN3CCC(OC(c4ccccc4)c4ccccc4)CC3)nn2c1C [Example 127A, N-[6-[3-[4-(Diphenylmethoxy)piperidino]propylamino]-3-methylimidazo[1,2-b]pyridazine-2-carbonyl]glycine Ethyl Ester] |  |
| 219 to 220 | Cc1c(C(C)(C)C(=O)O)nc2ccc(NCCCN3CCC(OC(c4ccccc4)c4ccccc4)CC3)nn12 [Example 138A, 2-[6-[3-[4-(Diphenylmethoxy)piperidino]propylamino]-3-methylimidazo[1,2-b]pyridazin-2-yl]-2-methylpropionic Acid] |  |

Further lines, the compound ahead of its results:

| Structure (SMILES) | melting point [°C] | further results |
| --- | --- | --- |
| O=C(CCN1CCC(OC(c2ccccc2)c2ccccc2)CC1)Nc1ccc2ncnn2n1 [Example 18A] |  | Inhibition (%) of Histamine-induced Skin Reactions, 3 mg/kg Oral Administration ([1]; Table 1): 91% |
| CC(C)(C(=O)O)c1cn2nc(OCCCN3CCC(OC(c4ccccc4)c4ccccc4)CC3)ccc2n1 [Example 45A] |  | Inhibition (%) of Histamine-induced Skin Reactions, 3 mg/kg Oral Administration ([1]; Table 1): 91% |
| CC(C)(C(=O)O)c1nc2ccc(OCCCN3CCN(C(c4ccccc4)c4ccccc4)CC3)nn2c1Cl [Example 88A, 2-[3-Chloro-6-[3-[4-(diphenylmethyl)-1-piperazinyl]propoxy]imidazo[1,2-b]pyridazin-2-yl]-2-methylpropionic Acid] | 118 to 121 |  |
| Cc1cc2nc(C(C)(C)C(=O)O)cn2nc1OCCCN1CCC(OC(c2ccccc2)c2ccccc2)CC1 [Example 89A, 2-[6-[3-[4-(Diphenylmethoxy)piperidino]propoxy]-7-methylimidazo[1,2-b]pyridazin-2-yl]-2-methylpropionic Acid] | 122 |  |
| CC(C)(C(=O)O)c1cn2nc(CCCCN3CCN(C(c4ccccc4)c4ccccc4)CC3)ccc2n1 [Example 95A, 2-[6-[4-[4-(Diphenylmethyl)-1-piperazinyl]butyl]imidazo[1,2-b]pyridazin-2-yl]-2-methylpropionic Acid] | 108 to 110 |  |
| CC(C)(C(=O)O)c1cn2nc(CCCN3CCN(C(c4ccccc4)c4ccccc4)CC3)ccc2n1 [Example 104A, 2-[6-[3-[4-(Diphenylmethyl)-1-piperazinyl]propyl]imidazo[1,2-b]pyridazin-2-yl]-2-methylpropionic Acid] | 176 to 178 |  |
| CCOC(=O)CNC(=O)c1nc2ccc(NCCCN3CCC(OC(c4ccccc4)c4ccccc4)CC3)nn2c1Cl [Example 111A, N-[3-Chloro-6-[3-[4-(diphenylmethoxy)piperidino]propylamino]imidazo[1,2-b]pyridazine-2-carbonyl]glycine Ethyl Ester] | 178 to 180 |  |
| c1ccc(C(OC2CCN(CCCCCNc3ccc4ncnn4n3)CC2)c2ccccc2)cc1 [Example 114A, 6-[5-[4-(Diphenylmethoxy)piperidino]pentylamino][1,2,4]triazolo[1,5-b]pyridazine] | 96 to 98 |  |
| OC(CNc1ccc2ncnn2n1)CN1CCC(OC(c2ccccc2)c2ccccc2)CC1 (centres unmarked) [Example 115A, 1-[4-(Diphenylmethoxy)piperidino]-3-[([1,2,4]triazolo[1,5-b]pyridazin-6-yl)amino]-2-propanol] | 82 to 87 |  |
| O=C(O)c1nc2ccc(NCCCN3CCC(OC(c4ccccc4)c4ccccc4)CC3)nn2n1 [Example 117A, [6-[3-[4-(Diphenylmethoxy)piperidino]propylamino][1,2,4]triazolo[1,5-b]pyridazin-2-yl]carboxylic Acid] | 135 to 138 |  |
| COC(=O)c1cc2ncnn2nc1NCCCN1CCC(OC(c2ccccc2)c2ccccc2)CC1 [Example 118A, Methyl[6-[3-[4-(Diphenylmethoxy)piperidino]propylamino][1,2,4]triazolo[1,5-b]pyridazin-7-yl]carboxylate] | 120 to 122 |  |
| O=C(O)c1cc2ncnn2nc1NCCCN1CCC(OC(c2ccccc2)c2ccccc2)CC1 [Example 119A, [6-[3-[4-(Diphenylmethoxy)piperidino]propylamino][1,2,4]triazolo[1,5-b]pyridazin-7-yl]carboxylic Acid] | 207 to 209 |  |
| CC(C)OC(=O)c1nc2ccc(OCCCN3CCC(OC(c4ccccc4)c4ccccc4)CC3)nn2n1 [Example 122A, Isopropyl[6-[3-[4-(Diphenylmethoxy)piperidino]propoxy][1,2,4]triazolo[1,5-b]pyridazin-2-yl]carboxylate] | 126 to 127 |  |
| O=C(O)c1nc2ccc(OCCCN3CCC(OC(c4ccccc4)c4ccccc4)CC3)nn2n1 [Example 123A, [6-[3-[4-(Diphenylmethoxy)piperidino]propoxy][1,2,4]triazolo[1,5-b]pyridazin-2-yl]carboxylic Acid] | 173 to 177 |  |
| O=C(O)CNC(=O)c1nc2ccc(NCCCN3CCC(OC(c4ccccc4)c4ccccc4)CC3)nn2n1 [Example 125A, N-[6-[3-[4-(Diphenylmethoxy)piperidino]propylamino][1,2,4]triazolo[1,5-b]pyridazine-2-carbonyl]glycine] | 256 to 258 |  |
| CC(C)(C(=O)O)c1cn2nc(NCCCN3CCC(OC(c4ccccc4)c4ccccc4)CC3)ccc2n1.O.O [Example 135A, 2-[6-[3-[4-(Diphenylmethoxy)piperidino]propylamino]imidazo[1,2-b]pyridazin-2-yl)-2-methylpropionic Acid Dihydrate] |  | Inhibition (%) of Histamine-induced Skin Reactions, 3 mg/kg Oral Administration ([1]; Table 1): 91%; Inhibition (%) of Histamine-induced Skin Reactions, 3 mg/kg Oral Administration ([1]; Table 3): 91% |
